Measurements taken from patent US20070088414A1, “Particulate formulations for intradermal delivery of biologically active agents” (priority 2005, published 2007).

Assays:
[1] = Payload determination, low molecular weight substance (SRB); assay type: physicochemical; conditions: SRB dye encapsulated in liposomes, released with 5% Triton X-100, read at 565 nm
Method: To determine the phospholipid concentration of liposomes, 10 μl of each liposome solution was placed in a 16×100 mm glass tube along with 0.4 ml of 10 N sulfuric acid. A set of phosphate standards was prepared from a 0.645 mM stock (Sigma P3869) which was also assayed in glass tubes alongside the liposome samples. Samples, standards and blank tubes were run in duplicate. All tubes were placed in a heating block and digested for 30 minutes at 180° C. Tubes were then removed from the heating block and cooled for 5 minutes before adding 100 μl of 9% hydrogen peroxide. All tubes were then again heated for 30 minutes at 180° C. […] All standards, samples and blanks were read at 820 nm on a spectrophotometer. Using the known standard values, a curve was generated from which phosphate concentration values can be calculated for each of the liposome samples. Phosphate concentration values are expressed as μmoles Pi/mL. […]
Sulfa rhodamine-B sodium salt (“SRB”) was used to determine payload capacity for a low molecular weight substance. […] All samples and standards were then read at 565 nm on a spectrophotometer. SRB dye payload molar concentrations were then calculated from the known standard curve. Using this procedure, the payload for SRB was determined to be about 10.956 nmoles per 50 nmoles of phosphate. […]

[2] = Lymph node penetration assay; conditions: Intradermal injection, liposomes 30 minutes after avidin, nodes harvested 24 hours, sodium salt
Method: Avidin was purchased from Sigma, with the concentration at 10 mg/ml. Avidin was hydrated with injectable saline. A 50 μl aliquot, at a dose of 250 μg, was delivered as described.
SRB was purchased from Sigma (Cat.# S9012). SRB was selected for its high solubility, and due to the fact that it is readily visible to the naked eye and has fluorescent properties.
An LUV process was used to make the SRB-liposomes. Two basic formulations were developed—hi and low PE-biotin content. […] The liposome formulation contained the following: DSPC (94.0 mg; 119.0 μmoles); DSPG (10.3 mg; 13.2 μmoles); Chol (50.9 mg; 132.0 μmoles); and Diol Biotin (2.6 mg; 2.64 μmoles). The mixture was brought to about 20 ml with chloroform and methanol at a 10:1 ratio. Organic solvent was removed at 45° C. A thin film on a rotovap flask was hydrated in 18 ml of 0.1M SRB prepared in buffer (1 mM EDTA, 0.2% NaN3, pH=8.0). The lipid dye suspension was then extruded through a series of nucleopore membranes (5.0. 1.0, 0.8, 0.6, 0.4, 0.2, 0.1, 0.05 micron). Approximately 5 ml was saved after the 0.2, 0.1 and 0.05 micron membranes. Each of the 5 ml preps was centrifuged, and pellets washed with osmotically adjusted (physiological 310 mOSM) buffer. After the free SRB was washed away, the final liposome pellets were resuspended in the same buffer to the final volume of 1 ml. […]

[3] = intravenous, 200 uL single tail vein injection
Method: IV delivery of free and particulate ICG was administered in a 200 uL volume in a single tail vein injection.

Visible Aggregation/Accumulation in Axillary Node ([2]; listed as Free SRB liposomes)	Visible Aggregation/Accumulation in Axillary Node [2]	SMILES	payload for SRB [1]	accumulation across the peritoneal cavity [3]
no SRB color retention in the node	No	CCN(CC)c1ccc2c(-c3ccc(S(=O)(=O)[O-])cc3S(=O)(=O)[O-])c3ccc(=[N+](CC)CC)cc-3oc2c1.[Na+] [free SRB, Sulfa rhodamine-B sodium salt]	about 10.956 nmoles per 50 nmoles of phosphate	–
–	–	CC1(C)C(/C=C/C=C/C=C/C=C2\N(CCCCS(=O)(=O)O)c3ccc4ccccc4c3C2(C)C)=[N+](CCCCS(=O)(=O)[O-])c2ccc3ccccc3c21 [free cardiogreen, Indocyanine Green]	–	manifested accumulation across the peritoneal cavity
